What was measured:
[1] = system: regenerated shoots of Mentha arvensis varieties; assay: whole plant or invertebrate; format: cell-based; conditions: 168 h, read-out: mortality of shoots
Excerpt: The plant varieties analysed were Himalaya, Shivalik, Gomti, MAS-1, Kosi, Kalka of Mentha arvensis L. (2n=96). The suckers of these plant varieties were obtained from CIMAP's national gene bank for medicinal and aromatic plants for planting. The explant materials were collected from the field grown plants and surface sterilized by washing sequentially with 2% detergent, distilled water containing a few drops of Savlon (Johnson and Johnson, India), 0.1% acidified mercuric chloride and autoclaved distilled water before inoculation. About 1 cm long internodal pieces were inoculated in the MS medium (Murasighe and Skoog, 1962) containing vitamins, 100 mg l^−1 myo-inositol 3% wv^−1 sucrose, 1.5% wv^−1 agar (Difco), 0.5 .μg ml^−1 of an auxin, (NAA, 1-napthalene acetic acid) and 5 μg ml^−1 of a cytokinin (BAP, benzyl aminopurine) (Shasany et al, 1998). The cultures were grown at 25±2° C. and 400 to 600 lux light intensity with 16 h photoperiod. The regenerated shoots were separated 12 weeks after the explant inoculation for rooting and/or testing menthol tolerance.
The regenerated shoots (3-4 cm long, containing the apical bud and 2-3 nodes) separated after 12 weeks, were inoculated into MS basal medium with or without menthol (0 to 100 μg ml^−1). […] The wilting response and lethality in explants was recorded every 24 hours over a period of one week.

[2] = system: callus mediated regenerants of Mentha arvensis cv. Himalaya; assay: Survival of callus mediated regenerants from internodal explants at different concentrations of menthol; format: cell-based; conditions: for Survival after 24 hours Number / Survival after 7 days Number: 20 shoots tested per replication
Excerpt: The Applicants selected the improved plant variety cv. Himalaya (U.S. Pat. PP 10,935: Kumar et al 1999) of Mentha arvensis L. as the base material for further improvement and selection. This variety is a hybrid between variety Gomti and Kalka and bears the high proliferating habit of Gomti and high menthol content, disease tolerant characters of Kalka. The explant material was collected from the field grown plants and surface sterilized by washing sequentially with 2% detergent, distilled water containing a few drops of Savlon (Johnson and Johnson, India), 0.1% acidified mercurie chloride and autoclaved distilled water before inoculation. About 1 cm long internode pieces were inoculated in the MS medium (Murashige and Skoog 1962) containing 0.2 μg ml^−1 concentrations of the auxin 2,4 dichlorophenoxyacetic acid (2,4-D) and 7 μg ml^−1 of the cytokinin 6-(γγ′- dimethylallyl amino) purine (2iP or 2aP) (Khanuja et al. 1998). This procedure has been highly efficient in generating variation in cultures of mints with greater frequencies. The cultures were grown at 25±2° C. and 400 to 600 lux light intensity with 16-h photoperiod. The regenerated shoots were separated 12 weeks latter the explant inoculation for rooting and/or screening.
The regenerated shoots (3-4 cm long, containing the apical bud and 2-3 nodes) separated from the 2,4D/2iP medium, were inoculated into MS basal medium containing vitamins, 100 mg l^−1 myo-inositol, 3% wv^−1 sucrose, 1.5% wv^−1 agar (Difco), with or without menthol (0 to 100 μg ml^−1, concentration stepped up by 10 μg serially in each treatment). On each kind of these media, 5 independent regenerated shoots were inoculated per flask; 4 flasks were inoculated per replication and each treatment was replicated 5 times, making the number of flasks to 20 and number of explants to 100 for each concentration of menthol. Like the earlier experiment this experiment was also conducted in the completely randomised design (CRD) fashion. Cultures were incubated and maintained at 25±2° C. and 400-600 lux light intensity with 16 hour photoperiod. The nature of initial responses in explants was recorded every 24 hours over a period of one week.

CC1CCC(C(C)C)C(O)C1 (centres unmarked) [menthol]
mortality at 80 ppm [1]: 100% | shoot survival ([2]; at and above 80 μg ml^−1 menthol, after 7th day): No shoots were able to survive | Survival after 24 hours % ([2]; menthol 10 μg ml^−1): 100% | Survival after 7 days % ([2]; menthol 10 μg ml^−1): 100% | Survival after 24 hours Number ([2]; menthol 10 μg ml^−1): 20.0 ± 0.00 | Survival after 7 days Number ([2]; menthol 10 μg ml^−1): 20.0 ± 0.00 | Survival after 24 hours % ([2]; menthol 20 μg ml^−1): 100% | Survival after 7 days % ([2]; menthol 20 μg ml^−1): 100% | Survival after 24 hours Number ([2]; menthol 20 μg ml^−1): 20.0 ± 0.00 | Survival after 7 days Number ([2]; menthol 20 μg ml^−1): 20.0 ± 0.00 | Survival after 24 hours % ([2]; menthol 30 μg ml^−1): 100% | Survival after 7 days % ([2]; menthol 30 μg ml^−1): 100% | Survival after 24 hours Number ([2]; menthol 30 μg ml^−1): 20.0 ± 0.00 | Survival after 7 days Number ([2]; menthol 30 μg ml^−1): 20.0 ± 0.00 | Survival after 24 hours % ([2]; menthol 40 μg ml^−1): 100% | Survival after 7 days % ([2]; menthol 40 μg ml^−1): 88% | Survival after 24 hours Number ([2]; menthol 40 μg ml^−1): 20.0 ± 0.00 | Survival after 7 days Number ([2]; menthol 40 μg ml^−1): 17.6 ± 0.66 | Survival after 24 hours % ([2]; menthol 50 μg ml^−1): 85% | Survival after 7 days % ([2]; menthol 50 μg ml^−1): 45% | Survival after 24 hours Number ([2]; menthol 50 μg ml^−1): 17.0 ± 0.91 | Survival after 7 days Number ([2]; menthol 50 μg ml^−1): 9.0 ± 0.41 | Survival after 24 hours % ([2]; menthol 60 μg ml^−1): 70% | Survival after 7 days % ([2]; menthol 60 μg ml^−1): 10% | Survival after 24 hours Number ([2]; menthol 60 μg ml^−1): 14.0 ± 0.58 | Survival after 7 days Number ([2]; menthol 60 μg ml^−1): 2.0 ± 0.41 | Survival after 24 hours % ([2]; menthol 70 μg ml^−1): 45% | Survival after 7 days % ([2]; menthol 70 μg ml^−1): 1% | Survival after 24 hours Number ([2]; menthol 70 μg ml^−1): 9.0 ± 0.91 | Survival after 7 days Number ([2]; menthol 70 μg ml^−1): 0.2 ± 0.26 | shoot survival ([2]; menthol 70 μg ml^−1, within 24 hours of inoculation): about 45% | death of shoots ([2]; menthol 70 μg ml^−1, within 7 days after inoculation): ~99% | Survival after 24 hours % ([2]; menthol 80 μg ml^−1): 20% | Survival after 7 days % ([2]; menthol 80 μg ml^−1): 0% | Survival after 24 hours Number ([2]; menthol 80 μg ml^−1): 4.0 ± 0.58 | Survival after 7 days Number ([2]; menthol 80 μg ml^−1): 0.0 ± 0.00 | Survival after 24 hours % ([2]; menthol 90 μg ml^−1): 10% | Survival after 7 days % ([2]; menthol 90 μg ml^−1): 0% | Survival after 24 hours Number ([2]; menthol 90 μg ml^−1): 2.0 ± 0.40 | Survival after 7 days Number ([2]; menthol 90 μg ml^−1): 0.0 ± 0.00 | Survival after 24 hours % ([2]; menthol 100 μg ml^−1): 0% | Survival after 7 days % ([2]; menthol 100 μg ml^−1): 0% | Survival after 24 hours Number ([2]; menthol 100 μg ml^−1): 0.0 ± 0.00 | Survival after 7 days Number ([2]; menthol 100 μg ml^−1): 0.0 ± 0.00

Source: patent US6423541B1, “Process for in vitro selection of high methol producing genotypes” (Council of Scientific&Industrial Reaearch, priority 2000, dated 2002)
